Source: US20260042731A1, “(2,4-DICHLOROPHENOXY)ACETIC ACID ANALOGS” (CORTEVA AGRISCIENCE LLC, priority 2022, published 2026)
Like-named read-outs stand apart in the source and are kept apart here.

How the values were obtained:
[1] = test system: Amaranthus rudis (AMATA), tall water hemp; assay: Postemergence herbicide evaluation, growth of Amaranthus rudis (AMATA); assay type: in vivo; conditions: Amaranthus tuberculatus, post-emergence, percent reduction in plant size relative to untreated control, read-out: Ave. AMATA; for pest or weed control at 280 g/ha: 280 g ae/ha; for pest or weed control at 560 g/ha: 560 g ae/ha
[2] = test system: Ambrosia artemisiifolia (AMBEL), common ragweed; assay: Postemergence herbicide evaluation, growth of Ambrosia artemisiifolia (AMBEL); assay type: in vivo; conditions: Ambrosia artemisiifolia, post-emergence, percent reduction in plant size relative to untreated control, read-out: AVE. AMBEL; for pest or weed control at 280 g/ha: 280 g ae/ha; for pest or weed control at 560 g/ha: 560 g ae/ha
[3] = test system: Abutilon theophrasti (ABUTH), velvetleaf; assay: Postemergence herbicide evaluation, growth of Abutilon theophrasti (ABUTH); assay type: in vivo; conditions: Abutilon theophrasti, post-emergence, percent reduction in plant size relative to untreated control, read-out: AVE. ABUTH; for pest or weed control at 280 g/ha: 280 g ae/ha; for pest or weed control at 560 g/ha: 560 g ae/ha
[4] = test system: Chenopodium album (CHEAL), common lambsquarters; assay: Postemergence herbicide evaluation, growth of Chenopodium album (CHEAL); assay type: in vivo; conditions: Chenopodium album, post-emergence, percent reduction in plant size relative to untreated control, read-out: Ave. CHEAL; for pest or weed control at 280 g/ha: 280 g ae/ha; for pest or weed control at 560 g/ha: 560 g ae/ha
[5] = test system: glyphosate resistant Conyza canadensis (L.) (ERICA), horseweed; assay: Postemergence herbicide evaluation, growth of Conyza canadensis (ERICA); assay type: in vivo; conditions: Erigeron canadensis, post-emergence, percent reduction in plant size relative to untreated control, read-out: Ave. ERICA; for pest or weed control at 280 g/ha: 280 g ae/ha; for pest or weed control at 560 g/ha: 560 g ae/ha
[6] = Volatility of compounds measured by thermogravimetric analysis (TGA); assay type: physicochemical
[7] = test system: weeds (ABUTH, AMATA, AMBEL, CHEAL, ERICA); assay: Postemergence herbicide evaluation, overall average % weed control across ABUTH, AMATA, AMBEL, CHEAL, ERICA; assay type: in vivo; conditions: post-emergence, average over the five weeds, read-out: Overall Ave % Weed Control; for pest or weed control at 280 g/ha: 280 g ae/ha; for pest or weed control at 560 g/ha: 560 g ae/ha

Compound | pest or weed control at 280 g/ha ([1]; 168 h, 7 DAA) [%] | pest or weed control at 560 g/ha ([1]; 168 h, 7 DAA) [%] | pest or weed control at 280 g/ha ([1]; 336 h, 14 DAA) [%] | pest or weed control at 560 g/ha ([1]; 336 h, 14 DAA) [%] | pest or weed control at 280 g/ha ([1]; 504 h, 21 DAA) [%] | pest or weed control at 560 g/ha ([1]; 504 h, 21 DAA) [%] | pest or weed control at 280 g/ha ([2]; 168 h, 7 DAA) [%] | pest or weed control at 560 g/ha ([2]; 168 h, 7 DAA) [%] | pest or weed control at 280 g/ha ([2]; 336 h, 14 DAA) [%] | pest or weed control at 560 g/ha ([2]; 336 h, 14 DAA) [%] | pest or weed control at 280 g/ha ([2]; 504 h, 21 DAA) [%] | pest or weed control at 560 g/ha ([2]; 504 h, 21 DAA) [%] | pest or weed control at 280 g/ha ([3]; 168 h, 7 DAA) [%] | pest or weed control at 560 g/ha ([3]; 168 h, 7 DAA) [%] | pest or weed control at 280 g/ha ([3]; 336 h, 14 DAA) [%] | pest or weed control at 560 g/ha ([3]; 336 h, 14 DAA) [%] | pest or weed control at 280 g/ha ([3]; 504 h, 21 DAA) [%] | pest or weed control at 560 g/ha ([3]; 504 h, 21 DAA) [%] | pest or weed control at 280 g/ha ([4]; 168 h, 7 DAA) [%] | pest or weed control at 560 g/ha ([4]; 168 h, 7 DAA) [%] | also measured
O=C(COc1ccc(Cl)cc1Cl)ONC(=O)c1ccc(C(=O)NOC(=O)COc2ccc(Cl)cc2Cl)cc1 [Compound B4] | 68 | 70 | 68 | 78 | 65 | 68 | 58 | 65 | 88 | 84 | 95 | 87 | 70 | 80 | 78 | 73 | 83 | 84 | 63 | 63 | pest or weed control at 280 g/ha ([4]; 336 h, 14 DAA): 70%; pest or weed control at 560 g/ha ([4]; 336 h, 14 DAA): 68%; pest or weed control at 280 g/ha ([4]; 504 h, 21 DAA): 75%; pest or weed control at 560 g/ha ([4]; 504 h, 21 DAA): 65%; pest or weed control at 280 g/ha ([5]; 168 h, 7 DAA): 68%; pest or weed control at 560 g/ha ([5]; 168 h, 7 DAA): 68%; pest or weed control at 280 g/ha ([5]; 336 h, 14 DAA): 85%; pest or weed control at 560 g/ha ([5]; 336 h, 14 DAA): 95%; pest or weed control at 280 g/ha ([5]; 504 h, 21 DAA): 99%; pest or weed control at 560 g/ha ([5]; 504 h, 21 DAA): 100%; TGA Data (rate of weight loss, volatility) [6]: 0.3 µg/min; pest or weed control at 280 g/ha ([7]; 168 h, 7 DAA): 65%; pest or weed control at 560 g/ha ([7]; 168 h, 7 DAA): 69%; pest or weed control at 280 g/ha ([7]; 336 h, 14 DAA): 78%; pest or weed control at 560 g/ha ([7]; 336 h, 14 DAA): 79%; pest or weed control at 280 g/ha ([7]; 504 h, 21 DAA): 83%; pest or weed control at 560 g/ha ([7]; 504 h, 21 DAA): 81%
N/C(=N\OC(=O)COc1ccc(Cl)cc1Cl)c1ccc(/C(N)=N/OC(=O)COc2ccc(Cl)cc2Cl)cc1 [Compound B5, (1,4)—N°1, N°4-Bis(2-(2,4-dichlorophenoxy)acetoxy)terephthalimidamide] | 25 | 25 | 0 | 18 | 15 | 33 | 18 | 15 | 8 | 15 | 5 | 18 | 0 | 3 | 10 | 3 | 10 | 0 | 15 | 13 | pest or weed control at 280 g/ha ([4]; 336 h, 14 DAA): 20%; pest or weed control at 560 g/ha ([4]; 336 h, 14 DAA): 15%; pest or weed control at 280 g/ha ([4]; 504 h, 21 DAA): 40%; pest or weed control at 560 g/ha ([4]; 504 h, 21 DAA): 13%; pest or weed control at 280 g/ha ([5]; 168 h, 7 DAA): 5%; pest or weed control at 560 g/ha ([5]; 168 h, 7 DAA): 25%; pest or weed control at 280 g/ha ([5]; 336 h, 14 DAA): 30%; pest or weed control at 560 g/ha ([5]; 336 h, 14 DAA): 35%; pest or weed control at 280 g/ha ([5]; 504 h, 21 DAA): 15%; pest or weed control at 560 g/ha ([5]; 504 h, 21 DAA): 28%; TGA Data (rate of weight loss, volatility) [6]: 0.1 µg/min; pest or weed control at 280 g/ha ([7]; 168 h, 7 DAA): 13%; pest or weed control at 560 g/ha ([7]; 168 h, 7 DAA): 16%; pest or weed control at 280 g/ha ([7]; 336 h, 14 DAA): 14%; pest or weed control at 560 g/ha ([7]; 336 h, 14 DAA): 17%; pest or weed control at 280 g/ha ([7]; 504 h, 21 DAA): 17%; pest or weed control at 560 g/ha ([7]; 504 h, 21 DAA): 18%
C/C(C/C(C)=N/OC(=O)COc1ccc(Cl)cc1Cl)=N\OC(=O)COc1ccc(Cl)cc1Cl [Compound B6, (2,4)-Pentane-2,4-dione O,O-di(2-(2,4-dichlorophenoxy)acetyl) dioxime] | 75 | 73 | 75 | 80 | 75 | 83 | 68 | 70 | 93 | 93 | 96 | 100 | 78 | 83 | 90 | 86 | 92 | 89 | 70 | 70 | pest or weed control at 280 g/ha ([4]; 336 h, 14 DAA): 88%; pest or weed control at 560 g/ha ([4]; 336 h, 14 DAA): 78%; pest or weed control at 280 g/ha ([4]; 504 h, 21 DAA): 93%; pest or weed control at 560 g/ha ([4]; 504 h, 21 DAA): 75%; pest or weed control at 280 g/ha ([5]; 168 h, 7 DAA): 68%; pest or weed control at 560 g/ha ([5]; 168 h, 7 DAA): 75%; pest or weed control at 280 g/ha ([5]; 336 h, 14 DAA): 93%; pest or weed control at 560 g/ha ([5]; 336 h, 14 DAA): 88%; pest or weed control at 280 g/ha ([5]; 504 h, 21 DAA): 98%; pest or weed control at 560 g/ha ([5]; 504 h, 21 DAA): 99%; TGA Data (rate of weight loss, volatility) [6]: 3.7 µg/min; pest or weed control at 280 g/ha ([7]; 168 h, 7 DAA): 72%; pest or weed control at 560 g/ha ([7]; 168 h, 7 DAA): 74%; pest or weed control at 280 g/ha ([7]; 336 h, 14 DAA): 88%; pest or weed control at 560 g/ha ([7]; 336 h, 14 DAA): 85%; pest or weed control at 280 g/ha ([7]; 504 h, 21 DAA): 91%; pest or weed control at 560 g/ha ([7]; 504 h, 21 DAA): 89%
